Assay results: patent publication US4320051A, “Analgesic tripeptide amides” (American Home Products Corporation, priority 1980, dated 1982)
Several values for one entry are separate records, joined by “and”; a condition that tells them apart may be missing. Equal values may be shown once. Square brackets hold non-standard residues; d marks the D form. Ends that are not written are not given here.

Tests used:
[1] = intravenous administration, relative to morphine; cited from earlier work
[2] = system: opiate receptor (3H-naloxone binding); experiment: 3H-naloxone displacement (procedure of Chang et al.); parameters: 3H-naloxone displacement ED50: unit not given here
Excerpt: Enkephalin, a natural opiate receptor agonist in the brain, has been identified [see Hughes et al., Nature, 258,577 (1975)] as a mixture of two pentapeptides: H-Tyr-Gly-Gly-Phe-Met-OH (methionine-enkephalin) and H-Tyr-Gly-Gly-Phe-Leu-OH (leucine-enkephalin). […] It has been reported that methionine-enkephalin and leucine-enkephalin, when administered by injection in the brain ventricle in rats, induce a profound analgesia that is fully reversible by naloxone. [See Beluzzi et al., Nature, 260, 625 (1976)].

[3] = system: phenylbenzoquinone-induced writhing; experiment: phenylbenzoquinone-induced writhing test; assay type: in vivo; settings: subcutaneous, mice
Method: Exp. Biol. Med., 95, 729-731 (1957), by establishing three groups of ten mice (Carworth farms) per group (18-27 g. body weight). The animals receive the compound being tested (Examples 9 and 15) subsubcutaneously. Five or 20 minutes later each animal received 0.25 milliliters of the writhing agonist (i.e. 0.02% solution of PBQ). The animals receiving the writhing agonist five minutes after the test compound are observed for a period of ten minutes beginning five minutes after the injection. The animals receiving the writhing agonist 20 minutes after the test compound are observed for ten minutes beginning five minutes after the injection. A compound is an analgesic if it inhibits writhing induced by phenyl benzoquinone.

Compound	times more potent than morphine [1]	3H-naloxone displacement ED50 [2]	relative displacement potency ([2]; 3H-naloxone displacement, morphine=1)	ED50 mg/kg. (confidence limits) ([3]; Time 15 minutes)	ED50 mg/kg. (confidence limits) ([3]; Time 30 minutes)
Y[dM]GFP-NH2	5.5 times	–	–	–	–
C[C@@H](NC(=O)[C@@H](N)Cc1ccc(O)cc1)C(=O)NCC(=O)NC(Cc1ccccc1)CN1CCN(C)CC1 (stereo partly drawn) [Example 9, L-Tyrosyl-D-alanyl-N-[1-[(4-methyl-1-piperazinyl)methyl]-2-phenyl-ethyl]glycinamide]	–	1.36×10^-7	1.3	1.05 (0.62-1.79) mg/kg	4.60 (3.1-6.9) mg/kg and 6.20 (4.4-8.7) mg/kg
